Data: publication PMC12281475, “Mediator Kinase Inhibitor Selectivity and Activity in Colorectal Cancer” (ACS Chemical Biology, 2025)

System: COLO205 cells
Assay: Phospho-proteome profiling (CDK-motif antibody enrichment, LC-MS/MS)
Type: cell-based, human
Settings: for CMPD 1/DMSO / MEAN MS SIGNAL CMPD 1 6 H: 6 H
Description: We phospho-proteome profiled COLO205 cells to identify Mediator kinase substrates following chemical inhibition of Mediator kinase activity. Given the confirmed CDK8/19 selectivity of our compounds in binding and enzymatic activity assays, we employed a pool of antibodies selective for the proline-rich motifs phosphorylated by the CDK family to enrich potential CDK8/19 substrates for LC-MS/MS analysis.
Adherent COLO205 cells were lysed with a urea buffer, lysates were reduced with DTT, alkylated with iodoacetimide and digested with trypsin-tosylphenylalanyl chloromethyl ketone. Digested peptides were immunoprecipitated using a pool of motif antibodies from Cell Signaling Technologies (US) comprising: phospho-MAPK substrate (PXS*P or S*PXR/K, #2325, RRID:AB_331820), phospho-CDKs substrate ((K/H)-S*P, #2324; RRID:AB_2244779), phospho-PLK binding motif (ST*P, #5243; RRID:AB_10891778) and phospho-tPE motif (T*PE, #3004; RRID:AB_10890649)-of phospho-MAPK (2325), phospho-CDK (2324), phospho-PLK (5243) and phospho-tPE (C3004) motif-recognizing antibodies immobilized onto protein A/G beads. Immunoprecipitated peptides were analyzed using an LTQ-Orbitrap-Velos. Sequences were assigned to the MS/MS spectra and evaluated using SEQUEST 3G and SORCERER 2 (Sage-N Research v4.0, Milpitas). Quantitative data was evaluated and clustered in Spotfire Decision Site (www.spotfire.tibco.com) and normalized using quartile normalization. Functional annotation and pathway analysis used DAVID (https://david.ncifcrf.gov/). […]
Phospho-proteome analyses
Adherent COLO205 cells were washed with PBS and cells lysed using urea lysis buffer (9 M Urea, 20 mM HEPES, pH 8.0, 1 mM beta-glycerophosphate, 1 mM sodium vanadate, 2.5 mM sodium pyrophosphate) and stored at -80 °C prior to analysis. The supernatants were reduced with 100 mM DTT for 30 minutes at 55 °C, followed by alkylation with 50 mM iodoacetimide for 15 minutes at ambient temperature in the dark.
The samples were diluted in 20 mM HEPES, pH 8.0 and digested overnight with 10 ug/mL trypsin-tosylphenylalanyl chloromethyl ketone in 1 mM HCl. Digested peptides were acidified with 1% formic acid and then desalted over 360-mg SEP PAK C18 columns (Waters, UK). Peptides were eluted with 40% acetonitrile in 0.125% formic acid, dried under a vacuum and the lyophilised peptides used for immunoprecipitation.
A pool of motif antibodies from Cell Signaling Technologies (US) comprising: phospho-MAPK substrate (PXS*P or S*PXR/K, #2325, RRID:AB_331820), phospho-CDKs substrate ((K/H)S*P, #2324; RRID:AB_2244779), phospho-PLK binding motif (ST*P, […]
RRID:AB_10890649), were immobilised onto protein A/G beads overnight at 4 °C. The lyophilised peptides were resuspended in MOPS buffer (50 mM MOPS, pH 7.2, 10 mM KH2PO4, 50 mM NaCl) and centrifuged for 5 mins at 13,500 rpm in an Eppendorf benchtop microcentrifuge. The supernatants were incubated with the motif-bound beads for 2.5 hours at 4 °C . The beads were harvested by centrifugation at 4000 rpm in an Eppendorf benchtop microcentrifuge for 5 mins, washed with MOPS buffer twice and washed again 5 times with deionised water. The peptides were eluted off the beads using 0.125% formic acid, were desalted and dried under a vacuum. The lyophilised immunoprecipitated peptides were resuspended in 0.125% formic acid and separated on a capillary column packed with Magic C18 AQ reversed-phase resin.
Peptides were eluted using a 72-minute linear gradient of acetonitrile in 0.125% formic acid delivered at 280nL/min. Samples were analysed using an LTQ-Orbitrap-Velos.
MS Parameter Settings were: MS Run Time 96 min, MS1 Scan Range (300.0 – 1500.00), Top 20 MS/MS (Min Signal 500, Isolation Width 2.0, Normalized Coll.
Charge State Rejection Enabled, Charge State 1+ Rejected, Dynamic Exclusion Enabled, Repeat Count 1, Repeat Duration 35.0, Exclusion List Size 500, Exclusion Duration 40.0, Exclusion Mass Width Relative to Mass, Exclusion Mass Width 10ppm). […]

[1] = AHCTF1 peptide 1205/1240 - STlrSTplaSpspSpgrSpqr - 1225/1265
[2] = AHNAK peptide 5778 - hrSnSfSderefSgpsTpTglefeggevsleggk - 5811
[3] = AKNA peptide 429 - vpqefqTpeqatelvhqlqedyhr - 452
[4] = ANLN peptide 381 - cqehSkeSparsTphrTpiiTpntk - 405
[5] = ARHGAP19 peptide 443 - knpTpesvaigelk - 456
[6] = ARID4B peptide 922/1008 - kaefpssgsnsvlnTpptTpespssvtvtegsr - 954/1040
[7] = ATN1 peptide 158 - pyhppplfppSpqppdstpr - 177
[8] = BAP1 peptide 513 - sanptrpsSpvtshisk - 529
[9] = BCL11B peptide 367 - lrelagnSSTpppvSpgrgnpmhr - 390
[10] = CC2D1A peptide 200 - gpasTpTySpaptqpapr - 217
[11] = CDT1 peptide 72 - lsvdevsSpstpeapdipacpspgqk - 97
[12] = CDT1 peptide 72 - lsvdevsspsTpeapdipacpSpgqk - 97
[13] = CHAMP1 peptide 198 - lapvpspepqkpapvSpesvk - 219
[14] = CHD4 peptide 1530 - mSqpgSpSpkTpTpSTpgdTqpnTpapvppaedgik - 1565
[15] = CHD4 peptide 1531 - SqpgSpSpkTptpstpgdtqpntpapvppaedgik - 1565
[16] = CHD4 peptide 1540 - TpTpSTpgdtqpnTpapvppaedgik - 1565
[17] = CHD4 peptide 1540 - TptpStpgdtqpnTpapvppaedgikieenslk - 1572
[18] = ECT2 peptide 403 - krpSaehSlSigSlldiSnTpeSsinYgdtpk - 434
[19] = EEF1G peptide 379 - gqelafplSpdwqvdyesytwr - 100
[20] = EGR1 peptide 6 - aemqlmsplqisdpfgsfphSptmdnypk -34
[21] = EGR1 peptide 6 - aemqlmsplqisdpfgsfphspTmdnypk - 34
[22] = EPC2 peptide 343 - aealitsqqpTpetlpvink - 362

With `Cn1cc(-c2ccc(-c3cncc(Cl)c3N3CCC4(CCNC4=O)CC3)cc2)cn1` [CCT251545] the “CMPD 1/DMSO” value [1] was 1.802, the “MEAN MS SIGNAL CMPD 1 6 H” value [1] was 238204 and the “CMPD 1/DMSO” value [2] was 1.997. The “MEAN MS SIGNAL CMPD 1 6 H” value [2] was 301575, the “CMPD 1/DMSO” value [3] was 0.569 and the “MEAN MS SIGNAL CMPD 1 6 H” value [3] was 41850. For the same compound, the “CMPD 1/DMSO” value [4] was 0.512, the “MEAN MS SIGNAL CMPD 1 6 H” value [4] was 62532 and the “CMPD 1/DMSO” value [5] was 0.589. For the same compound, the “MEAN MS SIGNAL CMPD 1 6 H” value [5] was 62950, the “CMPD 1/DMSO” value [6] was 2.069 and the “MEAN MS SIGNAL CMPD 1 6 H” value [6] was 72000. The “CMPD 1/DMSO” value [7] was 0.526, the “MEAN MS SIGNAL CMPD 1 6 H” value [7] was 1231725 and the “CMPD 1/DMSO” value [8] was 1.826. The “MEAN MS SIGNAL CMPD 1 6 H” value [8] was 26677, the “CMPD 1/DMSO” value [9] was 1.888 and the “MEAN MS SIGNAL CMPD 1 6 H” value [9] was 33472. For the same compound, the “CMPD 1/DMSO” value [10] was 0.625, the “MEAN MS SIGNAL CMPD 1 6 H” value [10] was 70653 and the “CMPD 1/DMSO” value [11] was 0.368. The “MEAN MS SIGNAL CMPD 1 6 H” value [11] was 55322, the “CMPD 1/DMSO” value [12] was 0.429 and the “MEAN MS SIGNAL CMPD 1 6 H” value [12] was 15418. The “CMPD 1/DMSO” value [13] was 2.031, the “MEAN MS SIGNAL CMPD 1 6 H” value [13] was 849660 and the “CMPD 1/DMSO” value [14] was 0.456. For the same compound, the “MEAN MS SIGNAL CMPD 1 6 H” value [14] was 51533, the “CMPD 1/DMSO” value [15] was 0.310 and the “MEAN MS SIGNAL CMPD 1 6 H” value [15] was 35479. The “CMPD 1/DMSO” value [16] was 0.193, the “MEAN MS SIGNAL CMPD 1 6 H” value [16] was 31383 and the “CMPD 1/DMSO” value [17] was 0.000. For the same compound, the “MEAN MS SIGNAL CMPD 1 6 H” value [17] was 0, the “abundance of phospho-peptide corresponding to phospho-STAT1 SER727” value (COLO205, 350 nM, 6 h) was “decrease in abundance” and the “phospho-peptides whose label-free intensities remained unchanged” value (COLO205, 350 nM, 6 h) was 95%. For the same compound, the “phosphorylation at MED13 THR565, MED14 SER1112 and MED26 SER314” value (COLO205, 350 nM, 6 h) was “reducing phosphorylation”, the “phosphorylation of POLR2A CTD phospho-peptides” value (COLO205, 350 nM, 6 h) was “no evidence of decreased phosphorylation” and the “number of phospho-peptides consistently decreased by > 1.5-fold” value (COLO205, 350 nM, 6 h, both independent biological repeats, 2,734 phospho-peptides identified) was 123. For the same compound, the “number of individual proteins represented by the decreased phospho-peptides” value (COLO205, 350 nM, 6 h, > 1.5-fold decrease) was 95, the “CMPD 1/DMSO” value [18] was 0.501 and the “MEAN MS SIGNAL CMPD 1 6 H” value [18] was 22710. For the same compound, the “CMPD 1/DMSO” value [19] was 0.521, the “MEAN MS SIGNAL CMPD 1 6 H” value [19] was 184020 and the “CMPD 1/DMSO” value [20] was 0.400. For the same compound, the “MEAN MS SIGNAL CMPD 1 6 H” value [20] was 23807, the “CMPD 1/DMSO” value [21] was 0.452 and the “MEAN MS SIGNAL CMPD 1 6 H” value [21] was 16379. For the same compound, the “CMPD 1/DMSO” value [22] was 0.365, the “MEAN MS SIGNAL CMPD 1 6 H” value [22] was 24823 and the “CMPD 1/DMSO” value (EZH2 peptide 46 - grlpnnssrpstpTinvlesk - 376) was 1.970.
